Patent US20220031697A1, “Dose and regimen for an hdm2-p53 interaction inhibitor in hematological tumors” (Novartis AG, priority 2017, published 2022)
“And” between values parts separate entries of the source, which are not always exact repeats. Equal values may be shown once. Read-outs that look alike come from different tables or passages of the source.

Tested on: patients with hematological tumors
[1] = 1A 250 mg N=10, cut-off 15 Jan. 2018
[2] = 1B 120 mg N=23, cut-off 15 Jan. 2018
[3] = 2C 45 mg N=25, cut-off 15 Jan. 2018

Description: Herein, data are disclosed from this multicenter, open-label, first-in-human Phase I study of HDM201 in patients with advanced TP53 wild-type (WT) leukemias.
The clinical study design allowed parallel exploration of the safety, tolerability, and clinical activity (efficacy) of two broad dosing strategies for HDM201 during dose escalation: intermittent high dose regimens (Regimen 1A and 1B) and extended low dose regimens (Regimen 2A and 2C).
This clinical study utilized a Bayesian logistic regression model (BLRM) to support dose escalation and estimate the MTD for HDM201. The BLRM enables incorporation of available prior information and updates the model parameters based upon the DLTs observed in the clinical study at varied doses in evaluable patients.

## COc1ncc(-c2nc3c(n2C(C)C)[C@H](c2ccc(Cl)cc2)N(c2cc(Cl)cn(C)c2=O)C3=O)c(OC)n1 [HDM201, (S)-5-(5-Chloro-1-methyl-2-oxo-1,2-dihydro-pyridin-3-yl)-6-(4-chloro-phenyl)-2-(2,4-dimethoxy-pyrimidin-5-yl)-1-isopropyl-5,6-dihydro-1H-pyrrolo[3,4-d]imidazol-4-one]
  Abdominal Discomfort, Grade 3/4: 0 n (%)
  Abdominal Pain Upper, Grade 3/4: 0 n (%)
  Abdominal Pain, Grade 3/4: 0 n (%)
  Amylase Increased, Grade 3/4: 0 n (%)
  Arthralgia, Grade 3/4: 0 n (%)
  Asthenia, Grade 3/4: 0 n (%)
  Atrial Fibrillation, Grade 3/4: 0 n (%)
  Atypical Pneumonia, Grade 3/4: 0 n (%)
  Balanitis Candida, Grade 3/4: 0 n (%)
  Blood Alkaline Phosphatase Increased, Grade 3/4: 0 n (%)
  Blood Bilirubin Increased, Grade 3/4: 0 n (%)
  Blood Phosphorus Increased, Grade 3/4: 0 n (%)
  Cardiac Failure, Grade 3/4: 0 n (%)
  Conjunctival Haemorrhage, Grade 3/4: 0 n (%)
  Constipation, Grade 3/4: 0 n (%)
  Cough, Grade 3/4: 0 n (%)
  Cystitis Viral, Grade 3/4: 0 n (%)
  Cytomegalovirus Infection, Grade 3/4: 0 n (%)
  Decreased Appetite, Grade 3/4: 0 n (%)
  Diarrhoea, Grade 3/4: 0 n (%)
  Dyspepsia, Grade 3/4: 0 n (%)
  Epistaxis, Grade 3/4: 0 n (%)
  Fatigue, Grade 3/4: 0 n (%)
  General Physical Health Deterioration, Grade 3/4: 0 n (%)
  Gingival Bleeding, Grade 3/4: 0 n (%)
  Graft Versus Host Disease, Grade 3/4: 0 n (%)
  Haemoglobin Decreased, Grade 3/4: 0 n (%)
  Headache, Grade 3/4: 0 n (%)
  Hyperbilirubinaemia, Grade 3/4: 0 n (%)
  Hyperglycaemia, Grade 3/4: 0 n (%)
  Hyperphosphataemia, Grade 3/4: 0 n (%)
  Hyperuricaemia, All Grades: 2 n (%) and 2 (33.3) n (%) and 1 (14.3) n (%)
  Hypoalbuminaemia, Grade 3/4: 0 n (%)
  Hypocalcaemia, Grade 3/4: 0 n (%)
  Hypokalaemia, Grade 3/4: 0 n (%)
  Hypomagnesaemia, Grade 3/4: 0 n (%)
  Hyponatraemia, Grade 3/4: 0 n (%)
  Hypotension, Grade 3/4: 0 n (%)
  Infective Glossitis, Grade 3/4: 0 n (%)
  Influenza Like Illness, Grade 3/4: 0 n (%)
  Iron Overload, Grade 3/4: 0 n (%)
  Lip Oedema, Grade 3/4: 0 n (%)
  Malaise, Grade 3/4: 0 n (%)
  Mouth Haemorrhage, Grade 3/4: 0 n (%)
  Nausea, Grade 3/4: 0 n (%)
  Oedema Peripheral, Grade 3/4: 0 n (%)
  Oedema, Grade 3/4: 0 n (%)
  Oral Disorder, Grade 3/4: 0 n (%)
  Pain In Extremity, Grade 3/4: 0 n (%)
  Pneumonia, Grade 3/4: 0 n (%)
  Pollakiuria, Grade 3/4: 0 n (%)
  Pyrexia, Grade 3/4: 0 n (%)
  Rash Erythematous, Grade 3/4: 0 n (%)
  Rash Papular, Grade 3/4: 0 n (%)
  Rash, Grade 3/4: 0 n (%)
  Rectal Haemorrhage, Grade 3/4: 0 n (%)
  Skin Exfoliation, Grade 3/4: 0 n (%)
  Vomiting, Grade 3/4: 0 n (%)
  Weight Decreased, Grade 3/4: 0 n (%)
[1]
  Amylase Increased, All Grades: 1 (10.0) n (%)
  Amylase Increased, Grade 3/4: 1 (10.0) n (%)
  Anemia, All Grades: 5 (50.0) n (%)
  Anemia, Grade 3/4: 3 (30.0) n (%)
  Aspiration, All Grades: 1 (10.0) n (%)
  Aspiration, Grade 3/4: 1 (10.0) n (%)
  Blood Creatinine Increased, All Grades: 2 (20.0) n (%)
  Blood Creatinine Increased, Grade 3/4: 0 n (%)
  Blood Uric Acid Increased, All Grades: 2 (20.0) n (%)
  Blood Uric Acid Increased, Grade 3/4: 1 (10.0) n (%)
  Diarrhoea, All Grades: 3 (30.0) n (%)
  Diarrhoea, Grade 3/4: 0 n (%)
  Febrile Neutropenia, All Grades: 2 (20.0) n (%)
  Febrile Neutropenia, Grade 3/4: 2 (20.0) n (%)
  Hyperkalaemia, All Grades: 2 (20.0) n (%)
  Hyperkalaemia, Grade 3/4: 1 (10.0) n (%)
  Hyperuricaemia, All Grades: 1 (10.0) n (%)
  Hyperuricaemia, Grade 3/4: 1 (10.0) n (%)
  Hypocalcaemia, All Grades: 3 (30.0) n (%)
  Hypocalcaemia, Grade 3/4: 1 (10.0) n (%)
  Hypomagnesaemia, All Grades: 2 (20.0) n (%)
  Hypomagnesaemia, Grade 3/4: 0 n (%)
  Leukopenia, All Grades: 1 (10.0) n (%)
  Leukopenia, Grade 3/4: 1 (10.0) n (%)
  Megakaryocytes Abnormal, All Grades: 1 (10.0) n (%)
  Megakaryocytes Abnormal, Grade 3/4: 1 (10.0) n (%)
  Nausea, All Grades: 3 (30.0) n (%)
  Nausea, Grade 3/4: 0 n (%)
  Neutropenia, All Grades: 4 (40.0) n (%)
  Neutropenia, Grade 3/4: 3 (30.0) n (%)
  Thrombocytopenia, All Grades: 5 (50.0) n (%)
  Thrombocytopenia, Grade 3/4: 5 (50.0) n (%)
  Tumour Lysis Syndrome, All Grades: 5 (50.0) n (%)
  Tumour Lysis Syndrome, Grade 3/4: 5 (50.0) n (%)
1A (d1 Q3W) 250 mg, 3 evaluable patients
  Cycle 1 DLTs: 0
1A (d1 Q3W) 350 mg, 4 evaluable patients
  Cycle 1 DLTs: 0
1A (d1 Q3W) 400 mg, 9 evaluable patients
  Cycle 1 DLTs: 4
1A total N = 16
  Cycle 1 DLTs: 4:
[2]
  Anemia, All Grades: 7 (30.4) n (%)
  Anemia, Grade 3/4: 2 (8.7) n (%)
  Asthenia, All Grades: 3 (13.0) n (%)
  Asthenia, Grade 3/4: 1 (4.3) n (%)
  Febrile Bone Marrow Aplasia, All Grades: 3 (13.0) n (%)
  Febrile Bone Marrow Aplasia, Grade 3/4: 2 (8.7) n (%)
  Leukopenia, All Grades: 3 (13.0) n (%)
  Leukopenia, Grade 3/4: 3 (13.0) n (%)
  Nausea, All Grades: 6 (26.1) n (%)
  Nausea, Grade 3/4: 0 n (%)
  Neutropenia, All Grades: 4 (17.4) n (%)
  Neutropenia, Grade 3/4: 4 (17.4) n (%)
  Thrombocytopenia, All Grades: 10 (43.5) n (%)
  Thrombocytopenia, Grade 3/4: 10 (43.5) n (%)
  Tumour Lysis Syndrome, All Grades: 4 (17.4) n (%)
  Tumour Lysis Syndrome, Grade 3/4: 3 (13.0) n (%)
  Vomiting, All Grades: 3 (13.0) n (%)
  Vomiting, Grade 3/4: 0 n (%)
1B (d1, d8 Q4W) 150 mg, 6 evaluable patients
  Cycle 1 DLTs: 1
1B total N = 6
  Cycle 1 DLT events: Acute Kidney
  Cycle 1 DLTs: 1:
2A (2 weeks on/2 weeks off) 20 mg, 3 evaluable patients
  Cycle 1 DLTs: 0
2A (2 weeks on/2 weeks off) 30 mg, 3 evaluable patients
  Cycle 1 DLTs: 0
2A total N = 6
  Cycle 1 DLTs: 0
[3]
  Alopecia, All Grades: 3 (12.0) n (%)
  Alopecia, Grade 3/4: 0 n (%)
  Anemia, All Grades: 13 (52.0) n (%)
  Anemia, Grade 3/4: 9 (36.0) n (%)
  Decreased Appetite, All Grades: 6 (24.0) n (%)
  Decreased Appetite, Grade 3/4: 0 n (%)
  Fatigue, All Grades: 5 (20.0) n (%)
  Fatigue, Grade 3/4: 2 (8.0) n (%)
  Febrile Neutropenia, All Grades: 8 (32.0) n (%)
  Febrile Neutropenia, Grade 3/4: 8 (32.0) n (%)
  Leukopenia, All Grades: 5 (20.0) n (%)
  Leukopenia, Grade 3/4: 5 (20.0) n (%)
  Nausea, All Grades: 12 (48.0) n (%)
  Nausea, Grade 3/4: 0 n (%)
  Neutropenia, All Grades: 11 (44.0) n (%)
  Neutropenia, Grade 3/4: 10 (40.0) n (%)
  Thrombocytopenia, All Grades: 13 (52.0) n (%)
  Thrombocytopenia, Grade 3/4: 12 (48.0) n (%)
  Tumour Lysis Syndrome, All Grades: 3 (12.0) n (%)
  Tumour Lysis Syndrome, Grade 3/4: 3 (12.0) n (%)
  Vomiting, All Grades: 6 (24.0) n (%)
  Vomiting, Grade 3/4: 0 n (%)
2C (1 week on/3 weeks off) 45 mg, 8 evaluable patients
  Cycle 1 DLTs: 1
2C total N = 8
  Cycle 1 DLTs: 1
Regimen 2C 45 mg
  Patients with DLT: 12.5%
Regimen 2C 45 mg, 8 patients
  Anemia, CTCAE grade 3/4 related to study drug: 37.5%
  Febrile neutropenia, CTCAE grade 3/4 related to study drug: 37.5%
  Neutropenia, CTCAE grade 3/4 related to study drug: 37.5%
  Patients with at least one CTCAE grade 3/4 AE related to study drug: 62.5%
  Thrombocytopenia, CTCAE grade 3/4 related to study drug: 62.5%
  Treatment-related anemia, all grades: 62.5%
  Treatment-related decreased appetite, all grades: 50.0%
  Treatment-related febrile neutropenia, all grades: 37.5%
  Treatment-related nausea, all grades: 37.5%
  Treatment-related neutropenia, all grades: 50.0%
  Treatment-related thrombocytopenia, all grades: 62.5%
